How the values were obtained:
Format in all cases: in vivo
[1] = system: rice (Or); experiment: Test for crop selectivity by paddy field soil treatment (Test Example 4), phytotoxicity to rice; details: transplanted two-leaf stage rice, 100 g/10 a active ingredient, 21st day
Protocol: (§1) [table] <Test Example 4> Test For Crop Selectivity By Paddy Field Soil Treatment A paddy field soil was filled in a plastic pot of 100 cm^2 and subjected to puddling. Seeds of Echinochloa oryzicola Vasing. (Eo) were sowed; two-leaf stage seedlings of rice (Or) were transplanted in a depth of 2 cm; and water was filled in a depth of 3 cm. Next day, wettable powders produced in accordance with the Formulation 1 were diluted with water and dropped on the water surface. The application amount of each wettable powder was 100 g per 10 ares in terms of the active ingredient. Then, breeding was made in a greenhouse. At the 21st day from the treatment, the phytotoxicity and herbicidal effect of each wettable powder were examined in accordance with the standard shown in Table 40.

[2] = system: Echinochloa oryzicola Vasing. (Eo); experiment: Test for herbicidal effect by paddy field soil treatment (Test Example 1); details: application amount (active ingredient) 100 g/10 a, examined at the 21st day from the treatment, index per Table 40
Outline: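 Eo seeds sown in puddled paddy soil under 3 cm water; next day a water-diluted wettable powder was dropped onto the water surface at 100 g active ingredient per 10 ares. Herbicidal effect scored on a standard scale 21 days after treatment, greenhouse-grown.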

[3] = system: Echinochloa oryzicola Vasing. (Eo); experiment: Test for crop selectivity by paddy field soil treatment (Test Example 4), herbicidal effect on Eo; details: 100 g/10 a active ingredient, 21st day
Protocol: as §1

[4] = system: Echinochloa crus-galli (L.) Beauv. var. crusgall (Ec); experiment: Test for herbicidal effect by upland field soil treatment (Test Example 2), Ec; details: 100 g/10 a active ingredient, examined at 21st day
Outline: (§2)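 Echinochloa crus-galli and Setaria viridis were sown in upland field soil and covered, then the soil surface was sprayed with water-diluted wettable powder at 100 g active ingredient per 10 ares (100 liters per 10 ares). Plants were grown in a greenhouse and scored on a standard scale on day 21.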

[5] = system: Echinochloa crus-galli (L.) Beauv. var. crusgalli (Ec); experiment: Test for herbicidal effect by upland foliage treatment (Test Example 3); details: 100 g/10 a active ingredient, examined at 14th day
Outline: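 Potted upland-soil Ec seedlings grown 2 weeks in greenhouse, then foliage-sprayed with water-diluted wettable powder at 100 L per 10 ares, giving 100 g active ingredient per 10 ares. Herbicidal effect scored on a graded standard 14 days after treatment.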

[6] = system: Setaria viridis (L.) Beauv. (Se); experiment: Test for herbicidal effect by upland field soil treatment (Test Example 2), Se; details: 100 g/10 a active ingredient, examined at 21st day
Outline: as §2

CCC1(C)CC(S(=O)(=O)Cc2ccc(OC)cc2)=NO1 (stereo not drawn) [Compound 1-230]
Phytotoxicity to Or [1]: 0 (A herbicidal effect or phytotoxicity of 0% to less than 10%)
Herbicidal effect to Eo [2]: 5 (A herbicidal effect or phytotoxicity of 90% or more)
Herbicidal effect to Eo [3]: 5 (A herbicidal effect or phytotoxicity of 90% or more)

CCCC1(C)CC([S+]([O-])Cc2c(F)cccc2F)=NO1 (stereo not drawn) [Compound 1-365]
Phytotoxicity to Or [1]: 1 (A herbicidal effect or phytotoxicity of 10% to less than 30%)
Herbicidal effect to Eo [2]: 5 (A herbicidal effect or phytotoxicity of 90% or more)
Herbicidal effect to Eo [3]: 5 (A herbicidal effect or phytotoxicity of 90% or more)

CC(C)C1(C)CC([S+]([O-])Cc2c(F)cccc2F)=NO1 (stereo not drawn) [Compound 1-367]
Phytotoxicity to Or [1]: 1 (A herbicidal effect or phytotoxicity of 10% to less than 30%)
Herbicidal effect to Eo [2]: 5 (A herbicidal effect or phytotoxicity of 90% or more)
Herbicidal effect to Eo [3]: 5 (A herbicidal effect or phytotoxicity of 90% or more)

CCCOc1cccc(C)c1CS(=O)(=O)C1=NOC(C)(C)C1 [Compound 1-603]
Herbicidal effect to Ec [4]: 5 (A herbicidal effect or phytotoxicity of 90% or more)
Herbicidal effect to Ec [5]: 4 (A herbicidal effect or phytotoxicity of 70% to less than 90%)
Herbicidal effect to Se [6]: 5 (A herbicidal effect or phytotoxicity of 90% or more)
Herbicidal effect to Eo [2]: 5 (A herbicidal effect or phytotoxicity of 90% or more)

Cc1cccc(OC(C)C)c1CS(=O)(=O)C1=NOC(C)(C)C1 [Compound 1-604]
Herbicidal effect to Ec [4]: 5 (A herbicidal effect or phytotoxicity of 90% or more)
Herbicidal effect to Ec [5]: 5 (A herbicidal effect or phytotoxicity of 90% or more)
Herbicidal effect to Se [6]: 5 (A herbicidal effect or phytotoxicity of 90% or more)
Herbicidal effect to Eo [2]: 5 (A herbicidal effect or phytotoxicity of 90% or more)

C=CCOc1cccc(C)c1CS(=O)(=O)C1=NOC(C)(C)C1 [Compound 1-606]
Herbicidal effect to Ec [4]: 5 (A herbicidal effect or phytotoxicity of 90% or more)
Herbicidal effect to Ec [5]: 4 (A herbicidal effect or phytotoxicity of 70% to less than 90%)
Herbicidal effect to Se [6]: 5 (A herbicidal effect or phytotoxicity of 90% or more)
Herbicidal effect to Eo [2]: 5 (A herbicidal effect or phytotoxicity of 90% or more)

C#CCOc1cccc(C)c1CS(=O)(=O)C1=NOC(C)(C)C1 [Compound 1-607]
Herbicidal effect to Ec [4]: 5 (A herbicidal effect or phytotoxicity of 90% or more)
Herbicidal effect to Ec [5]: 5 (A herbicidal effect or phytotoxicity of 90% or more)
Herbicidal effect to Se [6]: 5 (A herbicidal effect or phytotoxicity of 90% or more)
Herbicidal effect to Eo [2]: 5 (A herbicidal effect or phytotoxicity of 90% or more)

CC1(C)CC(S(=O)(=O)Cc2ccccc2OCC2CC2)=NO1 [Compound 1-608]
Herbicidal effect to Ec [4]: 5 (A herbicidal effect or phytotoxicity of 90% or more)
Herbicidal effect to Ec [5]: 5 (A herbicidal effect or phytotoxicity of 90% or more)
Herbicidal effect to Se [6]: 5 (A herbicidal effect or phytotoxicity of 90% or more)
Herbicidal effect to Eo [2]: 5 (A herbicidal effect or phytotoxicity of 90% or more)

CC1(C)CC(S(=O)(=O)Cc2ccccc2OC2CCCC2)=NO1 [Compound 1-609]
Herbicidal effect to Ec [4]: 5 (A herbicidal effect or phytotoxicity of 90% or more)
Herbicidal effect to Ec [5]: 5 (A herbicidal effect or phytotoxicity of 90% or more)
Herbicidal effect to Se [6]: 5 (A herbicidal effect or phytotoxicity of 90% or more)
Herbicidal effect to Eo [2]: 5 (A herbicidal effect or phytotoxicity of 90% or more)

— patent US6841519B1, “Isoxazoline derivatives and herbicides containing the same as the active ingredient” (Kumiai Chemical Industry Co., Ltd., priority 1999, dated 2005)
